Measurements published in patent publication US6689790B2, “Substituted triazolopyridine compounds” (Hoffmann-La Roche Inc., priority 2001, dated 2004).

molecular target: T1, human adenosine A2A receptor (Homo sapiens, UniProt P29274); test: [3H]-SCH-58261 binding assay, human adenosine A2A receptor (CHO cell membranes, SPA); conditions: [3H]-SCH-58261 displacement; list of examples 10-108; read-out: hA2a Ki
T1 construct: expressed in transfected cells; host or cells: CHO cells, semliki forest virus expression system; washed membranes
T1 sequence (P29274 whole entry): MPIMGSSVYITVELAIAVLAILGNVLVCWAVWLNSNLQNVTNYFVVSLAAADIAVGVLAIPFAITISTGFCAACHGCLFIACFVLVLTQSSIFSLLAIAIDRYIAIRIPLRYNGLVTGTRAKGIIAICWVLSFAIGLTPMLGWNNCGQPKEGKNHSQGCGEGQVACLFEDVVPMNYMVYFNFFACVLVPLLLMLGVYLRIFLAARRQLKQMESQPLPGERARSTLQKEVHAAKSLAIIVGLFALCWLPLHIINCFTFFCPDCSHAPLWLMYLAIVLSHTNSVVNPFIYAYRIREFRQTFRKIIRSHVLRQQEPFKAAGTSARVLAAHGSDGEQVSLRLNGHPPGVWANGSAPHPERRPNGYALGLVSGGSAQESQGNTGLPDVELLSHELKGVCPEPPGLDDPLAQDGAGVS
Experimental: Human Adenosine A2A Receptor
The human adenosine A2A receptor was recombinantly expressed in chinese hamster ovary (CHO) cells using the semliki forest virus expression system. Cells were harvested, washed twice by centrifugation, homogenized and again washed by centrifugation. The final washed membrane pellet was suspended in a Tris (50 mM) buffer containing 120 mM NaCl, 5 mM KCl, 2 mM CaCl2 and 10 mM MgCl2 (pH 7.4) (buffer A). […] Compounds were tested at 10 concentrations from 10 μM-0.3 nM. All assays were conducted in duplicate and repeated at least two times. Assay plates were incubated for 1 hour at room temperature before centrifugation and then bound ligand determined using a Packard Topcount scintillation counter. IC50 values were calculated using a non-linear curve fitting program and Ki values calculated using the Cheng-Prussoff equation.

Row | Ki [nM] | SMILES
1 | 796 | CCCN(C)C(=O)c1cc(N)c2nc(-c3ccccn3)nn2c1 [Example 31, 8-Amino-2-pyridin-2-yl-[1,2,4]triazolo[1,5-a]pyridine-6-carboxylic acid methyl-propyl-amide]
2 | 395 | CN(CCc1ccccc1)C(=O)c1cc(N)c2nc(-c3cccs3)nn2c1 [Example 67, 8-Amino-2-thiophen-2-yl-[1,2,4]triazolo[1,5-a]pyridine-6-carboxylic acid methyl-phenethyl-amide]
3 | 387 | CN(CCc1ccccc1)C(=O)c1cc(N)c2nc(-c3ccccn3)nn2c1 [Example 32, 8-Amino-2-pyridin-2-yl-[1,2,4]triazolo[1,5-a]pyridine-6-carboxylic acid methyl-phenethyl-amide]
4 | 564 | Nc1cc(C(=O)N2CCCC2)cn2nc(-c3nccs3)nc12 [Example 104, (8-Amino-2-thiazol-2-yl-[1,2,4]triazolo[1,5-a]pyridin-6-yl)-pyrrolidin-1-yl-methanone]
5 | 982 | Nc1cc(C(=O)N2CCSCC2)cn2nc(-c3cccs3)nc12 [Example 66, (8-Amino-2-thiophen-2-yl-[1,2,4]triazolo[1,5-a]pyridin-6-yl)-thiomorpholin-4-yl-methanone]
6 | 420 | CN(C)C(=O)[C@@H]1CCCN1C(=O)c1cc(N)c2nc(-c3ccccc3)nn2c1 [Example 76, 1-(8-Amino-2-phenyl-[1,2,4]triazolo[1,5-a]pyridine-6-carbonyl)-pyrrolidine-2-carboxylic acid dimethylamide]
7 | 154 | Cc1ccc(-c2nc3c(N)cc(C(=O)N4CCCC4C)cn3n2)s1 (stereo not shown) [Example 96, [8-Amino-2-(5-methyl-thiophen-2-yl)-[1,2,4]triazolo[1,5-a]pyridin-6-yl]-(2-methyl-pyrrolidin-1-yl)-methanone]
8 | 844 | CCCCN(C)C(=O)c1cc(N)c2nc(-c3nccs3)nn2c1 [Example 106, 8-Amino-2-thiazol-2-yl-[1,2,4]triazolo[1,5-a]pyridine-6-carboxylic acid butyl-methyl-amide]
9 | 131 | CCN(CC)C(=O)c1cc(N)c2nc(-c3ccc(C)o3)nn2c1 [Example 82, 8-Amino-2-(5-methyl-furan-2-yl)-[1,2,4]triazolo[1,5-a]pyridine-6-carboxylic acid diethylamide]
10 | 242 | COC[C@H]1CCCN1C(=O)c1cc(N)c2nc(-c3cccs3)nn2c1 [Example 57, (8-Amino-2-thiophen-2-yl-[1,2,4]triazolo[1,5-a]pyridin-6-yl)-(2-R-methoxymethyl-pyrrolidin-1-yl)-methanone]
11 | 230 | COC[C@@H]1CCCN1C(=O)c1cc(N)c2nc(-c3ccc(C)o3)nn2c1 (stereo in doubt) [Example 86, [8-Amino-2-(5-methyl-furan-2-yl)-[1,2,4]triazolo[1,5-a]pyridin-6-yl]-(2-methoxymethyl-pyrrolidin-1-yl)-methanone]
12 | 178 | CCCN(C)C(=O)c1cc(N)c2nc(-c3ccc(C)o3)nn2c1 [Example 89, 8-Amino-2-(5-methyl-furan-2-yl)-[1,2,4]triazolo[1,5-a]pyridine-6-carboxylic acid methyl-propyl-amide]
13 | 552 | CCCN(CCC)C(=O)c1cc(N)c2nc(-c3cccs3)nn2c1 [Example 54, 8-Amino-2-thiophen-2-yl-[1,2,4]triazolo[1,5-a]pyridine-6-carboxylic acid dipropylamide]
14 | 718 | CCN(CCc1ccccn1)C(=O)c1cc(N)c2nc(-c3cccs3)nn2c1 [Example 65, 8-Amino-2-thiophen-2-yl-[1,2,4]triazolo[1,5-a]pyridine-6-carboxylic acid ethyl-(2-pyridin-2-yl-ethyl)-amide]
15 | 213 | Cc1ccc(-c2nc3c(N)cc(C(=O)N4CCCC4)cn3n2)s1 [Example 94, [8-Amino-2-(5-methyl-thiophen-2-yl)-[1,2,4]triazolo[1,5-a]pyridin-6-yl]-pyrrolidin-1-yl-methanone]
16 | 428 | COCC1CCCN1C(=O)c1cc(N)c2nc(-c3ccc(C)s3)nn2c1 (stereo in doubt) [Example 97, [8-Amino-2-(5-methyl-thiophen-2-yl)-[1,2,4]triazolo[1,5-a]pyridin-6-yl]-((S)2-methoxymethyl-pyrrolidin-1-yl)-methanone]
17 | 112 | Cc1ccc(-c2nc3c(N)cc(C(=O)N(C)CCc4ccccc4)cn3n2)o1 [Example 91, 8-Amino-2-(5-methyl-furan-2-yl)-[1,2,4]triazolo[1,5-a]pyridine-6-carboxylic acid methyl-phenethyl-amide]
18 | 892 | COC[C@@H]1CCCN1C(=O)c1cc(N)c2nc(-c3cccs3)nn2c1 [Example 58, (8-Amino-2-thiophen-2-yl-[1,2,4]triazolo[1,5-a]pyridin-6-yl)-(2-S-methoxymethyl-pyrrolidin-1-yl)-methanone]
19 | 246 | Nc1cc(C(=O)N2CCCC2)cn2nc(-c3ccccc3)nc12 [Example 68, (8-Amino-2-phenyl-[1,2,4]triazolo[1,5-a]pyridin-6-yl)-pyrrolidin-1-yl-methanone]

Row | Ki [nM] | SMILES
20 | 478 | Cc1ccc(-c2nc3c(N)cc(C(=O)N4CCSCC4)cn3n2)s1 [Example 102, [8-Amino-2-(5-methyl-thiophen-2-yl)-[1,2,4]triazolo[1,5-a]pyridin-6-yl]-thiomorpholin-4-yl-methanone]
21 | 554 | Nc1cc(C(=O)N2CCCCC2)cn2nc(-c3ccccc3)nc12 [Example 69, (8-Amino-2-phenyl-[1,2,4]triazolo[1,5-a]pyridin-6-yl)-piperidin-1-yl-methanone]
22 | 920 | CCN(CCOC)C(=O)c1cc(N)c2nc(-c3cccs3)nn2c1 [Example 61, 8-Amino-2-thiophen-2-yl-[1,2,4]triazolo[1,5-a]pyridine-6-carboxylic acid ethyl-(2-methoxy-ethyl)-amide]
23 | 385 | CC1CCCN(C(=O)c2cc(N)c3nc(-c4ccccc4)nn3c2)C1 (stereo not shown) [Example 78, (8-Amino-2-phenyl-[1,2,4]triazolo[1,5-a]pyridin-6-yl)-(3-methyl-piperidin-1-yl)-methanone]
24 | 178 | Cc1ccc(-c2nc3c(N)cc(C(=O)N4CCCC(C)C4)cn3n2)s1 (stereo not shown) [Example 100, [8-Amino-2-(5-methyl-thiophen-2-yl)-[1,2,4]triazolo[1,5-a]pyridin-6-yl]-(3-methyl-piperidin-1-yl)-methanone]
25 | 440 | CCCN(C)C(=O)c1cc(N)c2nc(-c3cccs3)nn2c1 [Example 63, 8-Amino-2-thiophen-2-yl-[1,2,4]triazolo[1,5-a]pyridine-6-carboxylic acid methyl-propyl-amide]
26 | 988 | CN(CCc1ccccc1)C(=O)c1cc(N)c2nc(-c3nccs3)nn2c1 [Example 108, 8-Amino-2-thiazol-2-yl-[1,2,4]triazolo[1,5-a]pyridine-6-carboxylic acid methyl-phenethyl-amide]
27 | 260 | CC1CCCCN1C(=O)c1cc(N)c2nc(-c3cccs3)nn2c1 (stereo not shown) [Example 55, (8-Amino-2-thiophen-2-yl-[1,2,4]triazolo[1,5-a]pyridin-6-yl)-(2-methyl-piperidin-1-yl)-methanone]
28 | 684 | CCN(CC)C(=O)C1CCCN(C(=O)c2cc(N)c3nc(-c4cccs4)nn3c2)C1 (stereo not shown) [Example 56, 1-(8-Amino-2-thiophen-2-yl-[1,2,4]triazolo[1,5-a]pyridine-6-carbonyl)-piperidine-3-carboxylic acid diethylamide]
29 | 998 | CCN(CC)C(=O)C1CCCN(C(=O)c2cc(N)c3nc(-c4ccccc4)nn3c2)C1 (stereo not shown) [Example 73, 1-(8-Amino-2-phenyl-[1,2,4]triazolo[1,5-a]pyridine-6-carbonyl)-piperidine-3-carboxylic acid diethylamide]
30 | 145 | CC1CCCN1C(=O)c1cc(N)c2nc(-c3ccccc3)nn2c1 (stereo not shown) [Example 70, (8-Amino-2-phenyl-[1,2,4]triazolo[1,5-a]pyridin-6-yl)-(2-methyl-pyrrolidin-1-yl)-methanone]
31 | 632 | CC1CCCN(C(=O)c2cc(N)c3nc(-c4nccs4)nn3c2)C1 (stereo not shown) [Example 107, (8-Amino-2-thiazol-2-yl-[1,2,4]triazolo[1,5-a]pyridin-6-yl)-(3-methyl-piperidin-1-yl)-methanone]
32 | 229 | CC(C)N(Cc1ccccc1)C(=O)c1cc(N)c2nc(-c3ccco3)nn2c1 [Example 36, 8-Amino-2-furan-2-yl-[1,2,4]triazolo[1,5-a]pyridine-6-carboxylic acid benzyl-isopropyl-amide]
33 | 196 | COC[C@@H]1CCCN1C(=O)c1cc(N)c2nc(-c3ccccc3)nn2c1 [Example 74, (8-Amino-2-phenyl-[1,2,4]triazolo[1,5-a]pyridin-6-yl)-(2-methoxymethyl-pyrrolidin-1-yl)-methanone]
34 | 249 | Cc1ccc(-c2nc3c(N)cc(C(=O)N4CC(C)OC(C)C4)cn3n2)o1 (stereo not shown) [Example 92, [8-Amino-2-(5-methyl-furan-2-yl)-[1,2,4]triazolo[1,5-a]pyridin-6-yl]-(2,6-dimethyl-morpholin-4-yl)-methanone]
35 | 578 | CC1CCCN(C(=O)c2cc(N)c3nc(-c4ccccn4)nn3c2)C1 (stereo not shown) [Example 30, (8-Amino-2-pyridin-2-yl-[1,2,4]triazolo[1,5-a]pyridin-6-yl)-(3-methyl-piperidin-1-yl)-methanone]
36 | 140 | Cc1ccc(-c2nc3c(N)cc(C(=O)N4CCSCC4)cn3n2)o1 [Example 90, [8-Amino-2-(5-methyl-furan-2-yl)-[1,2,4]triazolo[1,5-a]pyridin-6-yl]-thiomorpholin-4-yl-methanone]
37 | 309 | Cc1ccc(-c2nc3c(N)cc(C(=O)N(C)CCc4ccccc4)cn3n2)s1 [Example 103, 8-Amino-2-(5-methyl-thiophen-2-yl)-[1,2,4]triazolo[1,5-a]pyridine-6-carboxylic acid methyl-phenethyl-amide]
